Laboratory results: patent US11445724B2, “Insecticidal compounds” (SYNGENTA PARTICIPATIONS AG, priority 2013, dated 2022)

Columns and labels:
Assay type in all cases: in vivo
[1] = tested on: Spodoptera littoralis (Egyptian cotton leafworm); assay: Spodoptera littoralis (Egyptian cotton leafworm) mortality, sprayed cotton leaf discs; details: foliar, 72 h, 200 ppm spray on cotton leaf discs, L1 larvae, mortality 3 DAT
[2] = tested on: Thrips tabaci (Onion thrips); assay: Thrips tabaci (Onion thrips) mortality, sprayed sunflower leaf discs; details: foliar, 168 h, 200 ppm spray on sunflower leaf discs, mixed ages, mortality after 7 days
[3] = tested on: Plutella xylostella (Diamond back moth); assay: Plutella xylostella (Diamond back moth) larval mortality, artificial diet in 24-well MTP; details: 144 h, application rate 200 ppm (concentration in well 18 ppm), L2 larvae, larval mortality after 6 days
[4] = tested on: Diabrotica balteata (Corn root worm); assay: Diabrotica balteata (Corn root worm) larval mortality, artificial diet in 24-well MTP; details: 120 h, application rate 200 ppm (concentration in well 18 ppm), L2 larvae, larval mortality after 5 days
[5] = tested on: Myzus persicae (Green peach aphid); assay: Myzus persicae (Green peach aphid) mortality, sprayed sunflower leaf discs; details: foliar, 144 h, 200 ppm spray on sunflower leaf discs, mixed ages, mortality 6 DAT

SMILES	pest or weed control at 200 ppm [1] [%]	pest or weed control at 200 ppm [2] [%]	pest or weed control at 200 ppm [3] [%]	pest or weed control at 200 ppm [4] [%]	pest or weed control at 200 ppm [5] [%]
O=C(Nc1cccc(C(=O)Nc2c(Br)cc(C(F)(C(F)(F)F)C(F)(F)F)cc2OC(F)F)c1F)c1ccccc1C(F)(F)F [Compound 34]	≥ 80	≥ 80	≥ 80		
O=C(Nc1cccc(C(=O)Nc2c(Br)cc(C(F)(C(F)(F)F)C(F)(F)F)cc2OC(F)F)c1F)c1cc(C(F)(F)F)ccc1F [Compound 42]	≥ 80	≥ 80	≥ 80	≥ 80	
O=C(Nc1cccc(C(=O)Nc2c(Cl)cc(C(F)(C(F)(F)F)C(F)(F)F)cc2OC(F)F)c1F)c1cc(Cl)ccc1F [Compound 55]	≥ 80	≥ 80	≥ 80	≥ 80	
COc1ccccc1C(=O)Nc1cccc(C(=O)Nc2c(Br)cc(C(F)(C(F)(F)F)C(F)(F)F)cc2OC(F)F)c1OC [Compound 58]	≥ 80	≥ 80	≥ 80	≥ 80	
O=C(Nc1cccc(C(=O)Nc2c(Cl)cc(C(F)(C(F)(F)F)C(F)(F)F)cc2OC(F)F)c1F)c1ccccc1OC(F)(F)F [Compound 65]	≥ 80				
O=C(Nc1cccc(C(=O)Nc2c(Cl)cc(C(F)(C(F)(F)F)C(F)(F)F)cc2OC(F)F)c1F)c1ccccc1C(F)(F)F [Compound 72]	≥ 80		≥ 80		
COc1c(NC(=O)c2cc(C(F)(F)F)ccc2F)cccc1C(=O)Nc1c(Br)cc(C(F)(C(F)(F)F)C(F)(F)F)cc1OC(F)F [Compound 73]	≥ 80				≥ 80
COc1c(NC(=O)c2ccccc2F)cccc1C(=O)Nc1c(Cl)cc(C(F)(C(F)(F)F)C(F)(F)F)cc1OC(F)F [Compound 75]	≥ 80	≥ 80	≥ 80		
O=C(Nc1cccc(C(=O)Nc2c(Cl)cc(C(F)(C(F)(F)F)C(F)(F)F)cc2OC(F)F)c1F)c1cc(C(F)(F)F)ccc1F [Compound 80]	≥ 80	≥ 80	≥ 80	≥ 80	
COc1c(NC(=O)c2cc(Cl)ccc2F)cccc1C(=O)Nc1c(Cl)cc(C(F)(C(F)(F)F)C(F)(F)F)cc1OC(F)F [Compound 85]	≥ 80				
COc1c(NC(=O)c2ccc(F)c(C(F)(F)F)c2)cccc1C(=O)Nc1c(Cl)cc(C(F)(C(F)(F)F)C(F)(F)F)cc1OC(F)F [Compound 88]	≥ 80	≥ 80	≥ 80		
COc1c(NC(=O)c2ccccc2OC(F)(F)F)cccc1C(=O)Nc1c(Cl)cc(C(F)(C(F)(F)F)C(F)(F)F)cc1OC(F)F [Compound 90]	≥ 80	≥ 80	≥ 80	≥ 80	
COc1ccccc1C(=O)Nc1cccc(C(=O)Nc2c(Cl)cc(C(F)(C(F)(F)F)C(F)(F)F)cc2OC(F)F)c1OC [Compound 91]	≥ 80		≥ 80	≥ 80	
COc1c(NC(=O)c2cccc(F)c2F)cccc1C(=O)Nc1c(Cl)cc(C(F)(C(F)(F)F)C(F)(F)F)cc1OC(F)F [Compound 96]	≥ 80		≥ 80		≥ 80
COc1c(NC(=O)c2cc(C(F)(F)F)ccc2F)cccc1C(=O)Nc1c(Cl)cc(C(F)(C(F)(F)F)C(F)(F)F)cc1OC(F)F [Compound 98]	≥ 80				
CCN(C(=O)c1ccccc1OC(F)(F)F)c1cccc(C(=O)Nc2c(Cl)cc(C(F)(C(F)(F)F)C(F)(F)F)cc2OC(F)F)c1F [Compound 118]	≥ 80		≥ 80	≥ 80	
CCN(C(=O)c1ccccc1C(F)(F)F)c1cccc(C(=O)Nc2c(Cl)cc(C(F)(C(F)(F)F)C(F)(F)F)cc2OC(F)F)c1F [Compound 121]	≥ 80	≥ 80	≥ 80	≥ 80	
CCN(C(=O)c1ccccc1C)c1cccc(C(=O)Nc2c(Br)cc(C(F)(C(F)(F)F)C(F)(F)F)cc2OC(F)F)c1OC [Compound 130]	≥ 80		≥ 80	≥ 80	
CCN(C(=O)c1cc(Cl)ccc1F)c1cccc(C(=O)Nc2c(Br)cc(C(F)(C(F)(F)F)C(F)(F)F)cc2OC(F)F)c1OC [Compound 134]	≥ 80	≥ 80	≥ 80	≥ 80	
CCN(C(=O)c1ccccc1OC(F)(F)F)c1cccc(C(=O)Nc2c(Br)cc(C(F)(C(F)(F)F)C(F)(F)F)cc2OC(F)F)c1OC [Compound 136]				≥ 80	
CCN(C(=O)c1cc(C(F)(F)F)ccc1F)c1cccc(C(=O)Nc2c(Br)cc(C(F)(C(F)(F)F)C(F)(F)F)cc2OC(F)F)c1OC [Compound 144]	≥ 80	≥ 80	≥ 80		
CCN(C(=O)c1ccccc1F)c1cccc(C(=O)Nc2c(Cl)cc(C(F)(C(F)(F)F)C(F)(F)F)cc2OC(F)F)c1OC [Compound 145]	≥ 80	≥ 80	≥ 80	≥ 80	
CCN(C(=O)c1ccccc1C)c1cccc(C(=O)Nc2c(Cl)cc(C(F)(C(F)(F)F)C(F)(F)F)cc2OC(F)F)c1OC [Compound 146]	≥ 80		≥ 80	≥ 80	
CCN(C(=O)c1ccc([N+](=O)[O-])cc1)c1cccc(C(=O)Nc2c(Cl)cc(C(F)(C(F)(F)F)C(F)(F)F)cc2OC(F)F)c1OC [Compound 148]		≥ 80		≥ 80	
CCN(C(=O)c1ccc(F)cc1C)c1cccc(C(=O)Nc2c(Cl)cc(C(F)(C(F)(F)F)C(F)(F)F)cc2OC(F)F)c1OC [Compound 150]	≥ 80	≥ 80	≥ 80	≥ 80	
CCN(C(=O)c1cc(Cl)ccc1F)c1cccc(C(=O)Nc2c(Cl)cc(C(F)(C(F)(F)F)C(F)(F)F)cc2OC(F)F)c1OC [Compound 151]	≥ 80	≥ 80	≥ 80	≥ 80	
CCN(C(=O)c1ccccc1OC(F)(F)F)c1cccc(C(=O)Nc2c(Cl)cc(C(F)(C(F)(F)F)C(F)(F)F)cc2OC(F)F)c1OC [Compound 153]		≥ 80		≥ 80	
CCN(C(=O)c1ccccc1C(F)(F)F)c1cccc(C(=O)Nc2c(Cl)cc(C(F)(C(F)(F)F)C(F)(F)F)cc2OC(F)F)c1OC [Compound 157]	≥ 80	≥ 80	≥ 80	≥ 80	
CCN(C(=O)c1ccc(F)c(C(F)(F)F)c1)c1cccc(C(=O)Nc2c(Br)cc(C(F)(C(F)(F)F)C(F)(F)F)cc2OC(F)F)c1OC [Compound 163]		≥ 80	≥ 80	≥ 80	
